In brackets after ≈: the same amount, converted by molar mass.
Tests used:
L1210 = assay: Cytotoxicity against mouse L1210 cells; assay type: functional, cell-based
KB = assay: Cytotoxicity against human KB cells; assay type: functional, cell-based

CC(C)=CC(=O)NCC(O)C1=CC(=O)c2nccc3c2c1nc1ccccc13 (configuration not stated) [CYSTODYTIN D]
IC50 (L1210): 1.1 µg/mL (≈ 2.95 µM)
IC50 (KB): 1.4 µg/mL (≈ 3.75 µM)

C/C=C(\C)C(=O)NCC(O)C1=CC(=O)c2nccc3c2c1nc1ccccc13 (configuration not stated) [CYSTODYTIN E]
IC50 (L1210): 1.1 µg/mL (≈ 2.95 µM)
IC50 (KB): 1.4 µg/mL (≈ 3.75 µM)

COC(CNC(=O)C=C(C)C)C1=CC(=O)c2nccc3c2c1nc1ccccc13 (configuration not stated) [CYSTODYTIN F]
IC50 (L1210): 0.068 µg/mL (≈ 0.176 µM)
IC50 (KB): 0.078 µg/mL (≈ 0.201 µM)

C/C=C(\C)C(=O)NCC(OC)C1=CC(=O)c2nccc3c2c1nc1ccccc13 (configuration not stated) [CYSTODYTIN G]
IC50 (L1210): 0.068 µg/mL (≈ 0.176 µM)
IC50 (KB): 0.078 µg/mL (≈ 0.201 µM)

CCCCCCCC/C=C/CCCCCCCC(=O)OC(CNC(=O)C=C(C)C)C1=CC(=O)c2nccc3c2c1nc1ccccc13 (configuration not stated) [CYSTODYTIN H]
IC50 (L1210): 0.08 µg/mL (≈ 0.125 µM)
IC50 (KB): 0.092 µg/mL (≈ 0.144 µM)

C/C=C(\C)C(=O)NCC(OC(=O)CCCCCCC/C=C/CCCCCCCC)C1=CC(=O)c2nccc3c2c1nc1ccccc13 (configuration not stated) [CYSTODYTIN I]
IC50 (L1210): 0.08 µg/mL (≈ 0.125 µM)
IC50 (KB): 0.092 µg/mL (≈ 0.144 µM)

— ChEMBL document CHEMBL1150204, “Cystodytins D-I, new cytotoxic tetracyclic aromatic alkaloids from the Okinawan marine tunicate Cystodytes dellechiajei” (J Nat Prod, 1991)
